Entries after “also recorded” stand apart in the source; their conditions may differ. Like-named read-outs stand apart in the source and are kept apart here.
How the values were obtained:
P2Y11 = target: T1, P2Y11 (Homo sapiens, UniProt Q96G91); details: cDNA library source: Human placenta; cited from earlier work
T1 sequence (Q96G91 1-374): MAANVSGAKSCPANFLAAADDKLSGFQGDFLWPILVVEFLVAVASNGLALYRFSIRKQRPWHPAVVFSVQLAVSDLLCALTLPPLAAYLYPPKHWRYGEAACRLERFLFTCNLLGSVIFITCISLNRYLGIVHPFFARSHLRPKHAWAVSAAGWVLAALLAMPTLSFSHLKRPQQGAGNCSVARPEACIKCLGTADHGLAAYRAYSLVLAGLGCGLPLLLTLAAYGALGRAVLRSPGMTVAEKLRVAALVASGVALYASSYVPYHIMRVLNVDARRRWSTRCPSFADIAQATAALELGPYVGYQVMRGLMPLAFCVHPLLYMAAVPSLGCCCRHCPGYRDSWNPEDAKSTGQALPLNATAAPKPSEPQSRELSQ

[1] = in vivo; cited from earlier work
P2Y2 receptor [2] = target: T2, P2Y2 receptor (Rattus norvegicus, UniProt P41232); details: reversible fashion; cited from earlier work
T2 construct: Freshly prepared IMCD-enriched fractions were incubated at 37.degree; C. under physiological conditions; from tissue; host or cells: rat kidney inner medulla / inner medullary collecting duct (IMCD) preparations

P2Y4 = P2Y4 (Homo sapiens, UniProt P51582); details: cDNA library source: Human chromosome X; cited from earlier work
[3] = tested on: P2Y2 receptor-stimulated PGE2 release by IMCD; test: Apyrase treatment in rats: basal and ATPγS-stimulated ex vivo PGE2 release by IMCD; design: species or system Sprague-Dawley rats
Procedure: (§1) It is non-toxic and safe to administer either intravenously or intraperitoneally. Two experiments were conducted. In one experiment Sprague-Dawley rats were divided into two groups (N=4 per group). One group was fed with regular rat chow, while the other was fed regular rat chow to which Lithium Chloride was added to a concentration of 40 mmol/kg wt of the food. Both groups were fed for 14 days without any other treatment. The second experiment was similar to the first one, except that potato apyrase (Sigma Chemical Co) was administered to both regular and lithium-added diet fed rats front day 7 to day 14 at a dose of 100 units/kg body wt. intraperitoneally, three times a day (˜8 hourly intervals). All rats had free access to drinking water. Twenty-four hour urine samples were collected from all rats on day 7 and 14 prior to euthanasia, and analyzed. All rats were euthanized on day 14, and IMCD suspensions were prepared. Basal and ATPγS-stimulated ex vivo PGE2 release by IMCD was determined as per the methods previously established.

[4] = Apyrase treatment day 7 to 14 in lithium-fed and regular diet rats: urine flow; assay type: in vivo, Sprague-Dawley rats
Procedure: as §1

P2Y1 [5] = target: P2Y1 (Rattus norvegicus, UniProt P49651); details: cited from earlier work
P2Y1 [6] = target: P2Y1 (Gallus gallus, UniProt P34996); details: cDNA library source: Chick brain; cited from earlier work
P2Y1 [7] = target: P2Y1 (Meleagris gallopavo, UniProt P49652); details: cDNA library source: Turkey brain; cited from earlier work
P2Y2 receptor [8] = details: chronic dDAVP infusion; cited from earlier work
[9] = tested on: purinergic-driven PGE2 production by IMCD; details: normal rats chronically infused with dDAVP 20 ng/h; cited from earlier work
V2 receptor = details: chronic dDAVP infusion; cited from earlier work
[10] = control rats fed with regular diet

T2 sequence (P41232 whole entry): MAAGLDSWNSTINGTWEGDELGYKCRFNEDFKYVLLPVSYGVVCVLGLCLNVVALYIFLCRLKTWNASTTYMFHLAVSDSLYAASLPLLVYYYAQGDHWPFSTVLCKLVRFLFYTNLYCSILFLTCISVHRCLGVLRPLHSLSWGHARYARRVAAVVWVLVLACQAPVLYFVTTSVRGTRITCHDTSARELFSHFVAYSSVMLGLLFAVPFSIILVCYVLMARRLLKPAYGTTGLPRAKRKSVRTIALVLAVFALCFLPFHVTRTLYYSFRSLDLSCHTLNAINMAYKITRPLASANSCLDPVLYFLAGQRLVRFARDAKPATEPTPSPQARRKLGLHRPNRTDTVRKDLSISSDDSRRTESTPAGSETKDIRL
Chain of P2Y1 (Rattus norvegicus, UniProt P49651) (P49651 whole entry): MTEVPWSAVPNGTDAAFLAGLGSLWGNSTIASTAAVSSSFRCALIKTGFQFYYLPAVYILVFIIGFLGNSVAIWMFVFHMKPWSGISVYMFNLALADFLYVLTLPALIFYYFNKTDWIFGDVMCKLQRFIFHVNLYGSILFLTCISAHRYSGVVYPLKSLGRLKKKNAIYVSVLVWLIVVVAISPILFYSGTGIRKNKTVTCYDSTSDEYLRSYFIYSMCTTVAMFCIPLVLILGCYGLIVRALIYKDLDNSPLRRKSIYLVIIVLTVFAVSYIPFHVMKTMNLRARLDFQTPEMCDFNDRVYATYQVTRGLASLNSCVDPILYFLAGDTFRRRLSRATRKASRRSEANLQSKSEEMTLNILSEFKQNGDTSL
Chain of P2Y1 (Gallus gallus, UniProt P34996) (P34996 whole entry): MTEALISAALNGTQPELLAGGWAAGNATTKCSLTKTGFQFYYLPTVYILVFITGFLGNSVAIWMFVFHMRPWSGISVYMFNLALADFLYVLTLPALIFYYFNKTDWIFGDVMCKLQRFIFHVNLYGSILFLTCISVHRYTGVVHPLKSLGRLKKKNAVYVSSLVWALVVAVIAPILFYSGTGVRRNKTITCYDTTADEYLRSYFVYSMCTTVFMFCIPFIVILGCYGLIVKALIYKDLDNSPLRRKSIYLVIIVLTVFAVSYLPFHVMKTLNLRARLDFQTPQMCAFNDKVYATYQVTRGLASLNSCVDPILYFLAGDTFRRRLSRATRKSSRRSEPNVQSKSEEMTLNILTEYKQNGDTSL
Chain of P2Y4 (P51582 whole entry): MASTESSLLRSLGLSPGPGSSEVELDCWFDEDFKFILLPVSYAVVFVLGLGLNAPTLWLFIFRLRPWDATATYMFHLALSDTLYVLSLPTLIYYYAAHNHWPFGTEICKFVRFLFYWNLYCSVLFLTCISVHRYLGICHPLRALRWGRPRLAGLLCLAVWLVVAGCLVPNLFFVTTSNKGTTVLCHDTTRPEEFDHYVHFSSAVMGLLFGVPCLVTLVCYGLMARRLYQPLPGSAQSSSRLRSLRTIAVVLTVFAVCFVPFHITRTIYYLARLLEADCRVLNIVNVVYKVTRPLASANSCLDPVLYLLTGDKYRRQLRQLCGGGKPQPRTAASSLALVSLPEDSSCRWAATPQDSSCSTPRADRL
Chain of P2Y1 (Meleagris gallopavo, UniProt P49652) (P49652 whole entry, the tested form may be a part): as the sequence (P34996 whole entry) above, with T28S counted along it

For `O=c1ccn([C@@H]2O[C@H](COP(=O)(O)OP(=O)(O)O)[C@@H](O)[C@H]2O)c(=O)[nH]1` [UDP], the Agonist activity (P2Y11) is given as “(UTP, UDP inactive)”.

In the case of `COc1ccc2c(c1)c(CC(=O)O)c(C)n2C(=O)c1ccc(Cl)cc1` [indomethacin], the “polyuria of acquired NDI” value [1] is listed as “prevented the polyuria; also recorded: ameliorated”.

For `Nc1ncnc2c1ncn2[C@@H]1O[C@H](COP(=O)(O)OP(=O)(O)O)[C@@H](O)[C@H]1O` [ADP], the “AVP-stimulated osmotic water permeability (Pf)” value (P2Y2 receptor [2]) is listed as “not”.

In the case of `Nc1ncnc2c1ncn2[C@@H]1O[C@H](COP(=O)(O)OP(=O)(O)OP(=O)(O)O)[C@@H](O)[C@H]1O` [ATP], the “AVP-stimulated osmotic water permeability (Pf)” value (P2Y2 receptor [2]) is listed as “decreased” and the Agonist activity (P2Y4) is listed as “UTP > UDP (ATP inactive)”.

In the case of apyrase, the “P2Y2-mediated PGE2 release by IMCD” value [3, 10] is reported as “did not change”, the “P2Y2 receptor-stimulated PGE2 release by IMCD” value ([3]; lithium-fed rats, compared to apyrase-untreated lithium-fed rats) is reported as “significantly decreased” and the urine output [4, 10] is reported as “did not change”. For the same molecule, the “urine flow induced by lithium” value ([4]; lithium-fed rats, apyrase day 7 to 14, 100 units/kg intraperitoneally three times a day) was “prevented further increase in the urine flow”.

In the case of `O=c1ccn([C@@H]2O[C@H](COP(=O)(O)OP(=O)(O)OP(=O)(O)O)[C@@H](O)[C@H]2O)c(=O)[nH]1` [UTP], the Agonist activity (P2Y11) is listed as “(UTP, UDP inactive)”, the Agonist activity (P2Y1 [5]; cDNA library source: Rat ileal myocytes) is listed as “ATP (UTP inactive)” and the “AVP-stimulated osmotic water permeability (Pf)” value (P2Y2 receptor [2]) is listed as “decreased”. The Agonist activity (P2Y1 [6]) was “inactive)” and the Agonist activity (P2Y1 [7]) was “inactive)”.

For dDAVP, the “mRNA expression of P2Y2 receptor, down-regulated to” value (P2Y2 receptor [8]) is given as 54%, the “protein abundance of P2Y2 receptor, down-regulated to” value (P2Y2 receptor [8]) is given as 49% and the “purinergic-driven PGE2 production by IMCD” value [9] is given as “significantly decreased”. The “expression of V2 receptor mRNA” value (V2 receptor) was “did not change significantly”.

For `Nc1ncnc2c1ncn2[C@@H]1O[C@H](COP(=O)(O)CP(=O)(O)OP(=O)(O)O)[C@@H](O)[C@H]1O` [α,β-meATP], the Agonist activity (P2Y1 [5]; cDNA library source: Rat insulinoma cells) is listed as “(α,β-meATP inactive)”.
